Laboratory results from ChEMBL document CHEMBL5696442, “Discovery of type II inhibitors of TGFβ-activated kinase 1 (TAK1) and mitogen-activated protein kinase kinase kinase kinase 2 (MAP4K2)” (J Med Chem, 2015).
The source made the active and inactive calls. No cut-off for these calls is given here.

Key:
[1] = tested on: Epidermal growth factor receptor (Homo sapiens), P00533 [T790M]; assay: Inhibition of EGFR T790M mutant (unknown origin) at 1 uM by Ambit Kinomescan binding assay relative to control
Epidermal growth factor receptor (Homo sapiens), P00533 [T790M], sequence (P00533 whole entry T790M, the tested form may be a part): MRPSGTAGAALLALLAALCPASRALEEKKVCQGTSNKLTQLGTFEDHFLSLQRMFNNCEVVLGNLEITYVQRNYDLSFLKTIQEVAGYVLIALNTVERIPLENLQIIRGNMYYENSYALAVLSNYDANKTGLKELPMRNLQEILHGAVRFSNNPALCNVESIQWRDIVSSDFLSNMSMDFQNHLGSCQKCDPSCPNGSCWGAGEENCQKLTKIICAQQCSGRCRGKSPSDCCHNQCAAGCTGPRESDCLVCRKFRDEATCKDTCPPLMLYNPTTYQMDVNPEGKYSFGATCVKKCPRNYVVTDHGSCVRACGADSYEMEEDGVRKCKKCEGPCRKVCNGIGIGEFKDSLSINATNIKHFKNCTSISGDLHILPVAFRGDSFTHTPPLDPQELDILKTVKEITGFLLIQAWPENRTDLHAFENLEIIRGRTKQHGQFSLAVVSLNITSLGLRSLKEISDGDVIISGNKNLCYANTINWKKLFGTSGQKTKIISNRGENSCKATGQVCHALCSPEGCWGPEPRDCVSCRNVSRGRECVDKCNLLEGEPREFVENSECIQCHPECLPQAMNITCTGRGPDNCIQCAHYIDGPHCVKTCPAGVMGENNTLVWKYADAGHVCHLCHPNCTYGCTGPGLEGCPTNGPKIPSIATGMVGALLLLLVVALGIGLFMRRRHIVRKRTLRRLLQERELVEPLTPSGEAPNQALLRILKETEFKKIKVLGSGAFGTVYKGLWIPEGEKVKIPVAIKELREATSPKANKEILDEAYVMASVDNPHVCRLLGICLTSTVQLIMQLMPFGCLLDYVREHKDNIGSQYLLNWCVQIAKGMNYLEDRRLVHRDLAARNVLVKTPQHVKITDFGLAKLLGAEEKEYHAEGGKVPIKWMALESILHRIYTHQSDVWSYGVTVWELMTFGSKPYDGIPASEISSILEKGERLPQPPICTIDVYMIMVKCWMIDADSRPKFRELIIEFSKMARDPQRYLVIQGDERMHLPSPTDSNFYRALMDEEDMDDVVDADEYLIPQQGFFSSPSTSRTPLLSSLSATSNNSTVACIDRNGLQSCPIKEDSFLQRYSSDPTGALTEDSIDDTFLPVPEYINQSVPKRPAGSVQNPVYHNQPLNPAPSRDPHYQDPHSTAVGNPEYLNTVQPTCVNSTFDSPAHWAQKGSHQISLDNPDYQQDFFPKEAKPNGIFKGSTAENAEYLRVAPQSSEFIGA

[2] = tested on: eIF-2-alpha kinase GCN2 (Homo sapiens), Q9P2K8 [S808G]; assay: Inhibition of GCN2 kinase domain 2 S808G mutant (unknown origin) at 1 uM by Ambit Kinomescan binding assay relative to control
[3] = target: T1, Serine/threonine-protein kinase TAO2 (Homo sapiens) (UniProt Q9UL54); assay: Inhibition of TAOK2 (unknown origin) at 1 uM by Ambit Kinomescan binding assay relative to control
T1 sequence (whole entry): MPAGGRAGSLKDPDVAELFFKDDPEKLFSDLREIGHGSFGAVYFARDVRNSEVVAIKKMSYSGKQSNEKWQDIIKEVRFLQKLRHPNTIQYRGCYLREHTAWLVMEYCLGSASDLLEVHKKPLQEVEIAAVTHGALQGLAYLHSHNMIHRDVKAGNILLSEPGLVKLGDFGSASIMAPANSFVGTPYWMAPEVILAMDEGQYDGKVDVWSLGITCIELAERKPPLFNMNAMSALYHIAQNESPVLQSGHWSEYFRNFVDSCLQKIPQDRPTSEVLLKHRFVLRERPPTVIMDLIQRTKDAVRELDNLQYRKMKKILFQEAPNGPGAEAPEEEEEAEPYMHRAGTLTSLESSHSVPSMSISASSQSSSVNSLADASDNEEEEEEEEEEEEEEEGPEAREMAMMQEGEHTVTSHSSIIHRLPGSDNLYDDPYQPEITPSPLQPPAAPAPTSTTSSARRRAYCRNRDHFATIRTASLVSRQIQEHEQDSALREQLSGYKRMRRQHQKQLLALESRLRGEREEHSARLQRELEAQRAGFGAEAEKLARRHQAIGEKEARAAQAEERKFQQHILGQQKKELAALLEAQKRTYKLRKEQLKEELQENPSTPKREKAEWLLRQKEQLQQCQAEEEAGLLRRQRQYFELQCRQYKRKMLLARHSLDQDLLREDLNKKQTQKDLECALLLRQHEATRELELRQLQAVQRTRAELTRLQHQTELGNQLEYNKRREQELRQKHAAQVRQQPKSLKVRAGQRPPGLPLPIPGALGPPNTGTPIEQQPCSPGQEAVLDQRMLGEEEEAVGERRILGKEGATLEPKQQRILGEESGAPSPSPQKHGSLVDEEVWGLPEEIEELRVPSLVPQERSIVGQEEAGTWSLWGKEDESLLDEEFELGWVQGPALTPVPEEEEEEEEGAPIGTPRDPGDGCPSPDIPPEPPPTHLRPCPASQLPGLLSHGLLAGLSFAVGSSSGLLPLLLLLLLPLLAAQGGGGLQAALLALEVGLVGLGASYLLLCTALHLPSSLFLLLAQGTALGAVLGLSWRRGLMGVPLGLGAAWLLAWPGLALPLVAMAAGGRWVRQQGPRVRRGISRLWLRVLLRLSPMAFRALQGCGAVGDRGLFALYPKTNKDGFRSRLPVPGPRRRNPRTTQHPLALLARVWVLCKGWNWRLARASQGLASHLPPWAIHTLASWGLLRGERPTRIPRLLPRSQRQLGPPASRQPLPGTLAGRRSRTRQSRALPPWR

[4] = target: Non-receptor tyrosine-protein kinase TNK1 (Homo sapiens) (UniProt Q13470); assay: Inhibition of TNK1 (unknown origin) at 1 uM by Ambit Kinomescan binding assay relative to control
[5] = target: T2, Acylglycerol kinase, mitochondrial (Homo sapiens) (UniProt Q53H12); assay: Inhibition of AGK ATP labeling site in human A-375 cells at 5 uM by KiNativ Profiling analysis relative to control; assay type: cell-based
T2 sequence (whole entry): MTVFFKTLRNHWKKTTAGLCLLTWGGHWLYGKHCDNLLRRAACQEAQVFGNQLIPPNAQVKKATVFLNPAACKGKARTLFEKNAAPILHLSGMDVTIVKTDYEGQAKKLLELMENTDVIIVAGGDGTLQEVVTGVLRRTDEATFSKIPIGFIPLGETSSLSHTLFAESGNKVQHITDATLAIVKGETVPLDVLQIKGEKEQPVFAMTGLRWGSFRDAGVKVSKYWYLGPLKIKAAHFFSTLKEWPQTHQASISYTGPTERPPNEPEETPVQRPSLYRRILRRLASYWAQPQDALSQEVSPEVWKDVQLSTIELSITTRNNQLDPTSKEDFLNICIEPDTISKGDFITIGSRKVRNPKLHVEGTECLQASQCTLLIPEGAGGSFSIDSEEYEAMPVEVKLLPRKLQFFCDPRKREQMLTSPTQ

[6] = target: Serine/threonine-protein kinase 32C (Homo sapiens) (UniProt Q86UX6); assay: Inhibition of YANK3 Lys2 labeling site in human A-375 cells at 0.5 uM by KiNativ Profiling analysis relative to control; assay type: cell-based
Serine/threonine-protein kinase 32C (Homo sapiens), sequence (Q86UX6 whole entry): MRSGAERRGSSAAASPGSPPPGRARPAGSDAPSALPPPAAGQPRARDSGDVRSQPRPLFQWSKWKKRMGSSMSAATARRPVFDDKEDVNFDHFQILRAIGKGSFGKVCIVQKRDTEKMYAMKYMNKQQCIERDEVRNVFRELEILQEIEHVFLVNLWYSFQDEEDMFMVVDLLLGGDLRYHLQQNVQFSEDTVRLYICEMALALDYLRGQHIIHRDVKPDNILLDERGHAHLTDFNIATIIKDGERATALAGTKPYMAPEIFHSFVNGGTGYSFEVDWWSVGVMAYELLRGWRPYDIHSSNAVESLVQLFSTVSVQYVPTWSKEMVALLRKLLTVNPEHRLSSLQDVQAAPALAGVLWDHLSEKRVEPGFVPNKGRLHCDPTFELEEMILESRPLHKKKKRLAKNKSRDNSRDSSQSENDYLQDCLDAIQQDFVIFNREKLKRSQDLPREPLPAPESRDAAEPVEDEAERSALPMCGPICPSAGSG

[7] = target: 5'-AMP-activated protein kinase catalytic subunit alpha-2 (Homo sapiens) (UniProt P54646); assay: Inhibition of AMPKa2 Lys2 labeling site in human A-375 cells at 0.05 uM by KiNativ Profiling analysis relative to control; assay type: cell-based
5'-AMP-activated protein kinase catalytic subunit alpha-2 (Homo sapiens), sequence (P54646 whole entry, looked up): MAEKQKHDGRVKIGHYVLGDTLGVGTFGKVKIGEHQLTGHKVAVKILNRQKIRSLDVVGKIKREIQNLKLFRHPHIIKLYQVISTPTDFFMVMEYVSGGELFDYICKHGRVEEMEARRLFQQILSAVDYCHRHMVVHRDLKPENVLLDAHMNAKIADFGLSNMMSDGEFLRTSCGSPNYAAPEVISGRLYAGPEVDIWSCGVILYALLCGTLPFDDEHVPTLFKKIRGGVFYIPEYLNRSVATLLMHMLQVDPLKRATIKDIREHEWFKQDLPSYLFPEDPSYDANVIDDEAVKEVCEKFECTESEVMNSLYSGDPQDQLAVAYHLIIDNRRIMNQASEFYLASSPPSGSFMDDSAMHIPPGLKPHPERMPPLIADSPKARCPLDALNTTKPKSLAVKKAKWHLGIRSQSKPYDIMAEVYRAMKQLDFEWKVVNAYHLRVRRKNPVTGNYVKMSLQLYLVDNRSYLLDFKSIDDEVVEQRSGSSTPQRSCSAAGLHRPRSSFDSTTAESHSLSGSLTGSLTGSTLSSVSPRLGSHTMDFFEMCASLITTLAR

[8] = target: Bone morphogenetic protein receptor type-1A (Homo sapiens) (UniProt P36894); assay: Inhibition of BMPR1A (unknown origin) at 1 uM by Ambit Kinomescan binding assay relative to control; values are per cent of control
Bone morphogenetic protein receptor type-1A (Homo sapiens), sequence (P36894 whole entry): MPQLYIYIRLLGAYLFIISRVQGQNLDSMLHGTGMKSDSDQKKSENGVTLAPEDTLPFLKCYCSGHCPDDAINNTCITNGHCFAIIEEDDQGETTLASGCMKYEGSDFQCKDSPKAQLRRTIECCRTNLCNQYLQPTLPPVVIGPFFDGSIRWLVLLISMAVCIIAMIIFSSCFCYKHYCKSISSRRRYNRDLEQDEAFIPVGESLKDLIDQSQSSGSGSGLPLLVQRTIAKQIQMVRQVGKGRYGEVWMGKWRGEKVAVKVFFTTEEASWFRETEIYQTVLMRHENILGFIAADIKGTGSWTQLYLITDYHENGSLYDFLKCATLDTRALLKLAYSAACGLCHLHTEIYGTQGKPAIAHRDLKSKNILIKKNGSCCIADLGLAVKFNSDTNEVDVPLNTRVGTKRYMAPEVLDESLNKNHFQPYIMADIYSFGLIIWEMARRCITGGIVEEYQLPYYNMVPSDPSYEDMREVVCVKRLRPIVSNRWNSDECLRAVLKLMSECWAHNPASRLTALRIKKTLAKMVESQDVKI

[9] = target: Tyrosine-protein kinase Blk (Homo sapiens) (UniProt P51451); assay: Inhibition of BLK (unknown origin) at 10 uM by Ambit Kinomescan binding assay relative to control
Tyrosine-protein kinase Blk (Homo sapiens), sequence (P51451 2-505 limits assumed): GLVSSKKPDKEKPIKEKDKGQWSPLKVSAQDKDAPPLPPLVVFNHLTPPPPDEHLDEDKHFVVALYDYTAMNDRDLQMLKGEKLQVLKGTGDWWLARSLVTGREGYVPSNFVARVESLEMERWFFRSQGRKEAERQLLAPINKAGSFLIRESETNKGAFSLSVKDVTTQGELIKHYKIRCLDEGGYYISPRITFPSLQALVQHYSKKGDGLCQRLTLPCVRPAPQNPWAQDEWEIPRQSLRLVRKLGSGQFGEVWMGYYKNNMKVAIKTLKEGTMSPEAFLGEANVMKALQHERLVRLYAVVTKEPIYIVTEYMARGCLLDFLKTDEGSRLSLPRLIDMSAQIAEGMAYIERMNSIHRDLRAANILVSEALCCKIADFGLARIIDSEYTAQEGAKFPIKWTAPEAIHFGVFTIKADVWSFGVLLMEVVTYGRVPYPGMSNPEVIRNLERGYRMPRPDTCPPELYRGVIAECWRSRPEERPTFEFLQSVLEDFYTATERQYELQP

[10] = target: Tyrosine-protein kinase JAK1 (Homo sapiens) (UniProt P23458); assay: Inhibition of JAK1 JH2 pseudokinase domain (unknown origin) at 10 uM by Ambit Kinomescan binding assay
[11] = target: Cyclin-dependent kinase 8 (Homo sapiens) (UniProt P49336); assay: Inhibition of CDK8 Lys2 labeling site in human Huh-7 cell lysate at 1 uM by KiNativ Profiling analysis relative to control; assay type: subcellular
Cyclin-dependent kinase 8 (Homo sapiens), sequence (P49336 whole entry): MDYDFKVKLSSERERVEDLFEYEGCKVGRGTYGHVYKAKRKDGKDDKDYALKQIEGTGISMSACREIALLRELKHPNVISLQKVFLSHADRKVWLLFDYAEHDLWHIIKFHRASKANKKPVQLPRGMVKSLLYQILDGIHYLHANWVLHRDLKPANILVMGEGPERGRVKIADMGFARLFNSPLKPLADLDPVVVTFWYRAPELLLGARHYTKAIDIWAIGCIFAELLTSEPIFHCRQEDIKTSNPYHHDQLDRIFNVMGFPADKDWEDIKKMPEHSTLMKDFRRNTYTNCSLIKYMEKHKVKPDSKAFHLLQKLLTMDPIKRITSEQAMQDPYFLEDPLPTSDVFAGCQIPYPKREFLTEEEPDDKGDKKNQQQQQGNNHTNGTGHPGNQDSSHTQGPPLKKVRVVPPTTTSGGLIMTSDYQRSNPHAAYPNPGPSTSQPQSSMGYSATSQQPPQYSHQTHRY

[12] = target: Serine/threonine-protein kinase 16 (Homo sapiens) (UniProt O75716); assay: Inhibition of MPSK1 Lys2 labeling site in human Huh-7 cells at 1 uM by KiNativ Profiling analysis relative to control; assay type: cell-based
Serine/threonine-protein kinase 16 (Homo sapiens), sequence (O75716 whole entry): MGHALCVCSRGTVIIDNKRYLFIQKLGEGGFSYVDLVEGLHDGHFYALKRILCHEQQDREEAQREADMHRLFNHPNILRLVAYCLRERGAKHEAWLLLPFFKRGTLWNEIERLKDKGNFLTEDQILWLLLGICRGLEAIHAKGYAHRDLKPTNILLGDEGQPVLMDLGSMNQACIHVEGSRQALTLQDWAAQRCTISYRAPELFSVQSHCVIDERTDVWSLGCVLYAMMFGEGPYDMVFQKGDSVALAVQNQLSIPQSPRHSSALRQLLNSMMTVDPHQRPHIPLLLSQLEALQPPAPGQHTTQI

[13] = target: Phosphatidylinositol 3-kinase catalytic subunit type 3 (Homo sapiens) (UniProt Q8NEB9); assay: Inhibition of PIK3C3 ATP labeling site in human Huh-7 cells at 1 uM by KiNativ Profiling analysis relative to control; assay type: cell-based
Phosphatidylinositol 3-kinase catalytic subunit type 3 (Homo sapiens), sequence (Q8NEB9 whole entry): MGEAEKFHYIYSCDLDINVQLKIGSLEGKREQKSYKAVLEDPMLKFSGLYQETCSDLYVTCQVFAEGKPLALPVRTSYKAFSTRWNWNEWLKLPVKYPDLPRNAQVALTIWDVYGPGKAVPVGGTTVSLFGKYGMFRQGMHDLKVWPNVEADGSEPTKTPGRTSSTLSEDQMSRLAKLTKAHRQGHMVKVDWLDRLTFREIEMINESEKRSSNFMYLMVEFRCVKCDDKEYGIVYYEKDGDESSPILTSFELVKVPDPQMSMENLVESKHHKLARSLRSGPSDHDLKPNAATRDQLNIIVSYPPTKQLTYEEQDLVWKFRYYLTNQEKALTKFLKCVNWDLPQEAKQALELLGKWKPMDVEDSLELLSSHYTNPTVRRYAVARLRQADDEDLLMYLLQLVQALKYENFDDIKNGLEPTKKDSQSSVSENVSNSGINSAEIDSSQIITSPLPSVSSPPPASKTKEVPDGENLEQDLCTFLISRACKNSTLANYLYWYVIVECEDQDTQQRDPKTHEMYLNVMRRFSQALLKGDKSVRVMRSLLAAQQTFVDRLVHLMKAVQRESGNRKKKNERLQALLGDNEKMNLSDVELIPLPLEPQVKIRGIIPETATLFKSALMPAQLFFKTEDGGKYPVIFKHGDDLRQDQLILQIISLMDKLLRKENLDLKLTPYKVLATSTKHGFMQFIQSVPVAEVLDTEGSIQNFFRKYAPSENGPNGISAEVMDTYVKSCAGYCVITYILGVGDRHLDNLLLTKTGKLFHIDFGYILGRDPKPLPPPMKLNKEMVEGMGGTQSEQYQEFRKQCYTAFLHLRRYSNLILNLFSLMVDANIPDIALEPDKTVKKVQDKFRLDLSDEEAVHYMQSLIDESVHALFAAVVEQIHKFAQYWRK

CCN1CCN(Cc2ccc(NC(=O)c3ccc(C)c(/C=C/c4cnc5[nH]ccc5c4OC)c3)cc2C(F)(F)F)CC1
inhibition [1]: 68%
inhibition [2]: 11%
inhibition [3]: 16%
inhibition [4]: 6.6%
inhibition [5]: 9.9%
inhibition [6]: 11.5%
inhibition [7]: 7.3%
residual activity [8]: 100%

CCN1CCN(Cc2ccc(NC(=O)c3ccc(C)c(Oc4ccnc5[nH]ccc45)c3)cc2C(F)(F)F)CC1
inhibition [9]: 0.45%
inhibition [10]: inactive

CNc1cc(Oc2cc(C(=O)Nc3cc(N4CCN(C)CC4)cc(C(F)(F)F)c3)ccc2C)ncn1
inhibition [11]: -8.6%
inhibition [12]: 33.2%
inhibition [13]: 8.9%
